# From US8455528B2, “Imidazole derivatives useful as inhibitors of FAAH” (Merck Sharp & Dohme Corp., priority 2008, dated 2013)
# Biological target: T1, Human FAAH (Homo sapiens, UniProt O00519)
# T1 construct: The full length FAAH was subcloned into the mammalian expression vector, pcDEF.neo; expressed in transfected cells
# T1 sequence (O00519 1-579): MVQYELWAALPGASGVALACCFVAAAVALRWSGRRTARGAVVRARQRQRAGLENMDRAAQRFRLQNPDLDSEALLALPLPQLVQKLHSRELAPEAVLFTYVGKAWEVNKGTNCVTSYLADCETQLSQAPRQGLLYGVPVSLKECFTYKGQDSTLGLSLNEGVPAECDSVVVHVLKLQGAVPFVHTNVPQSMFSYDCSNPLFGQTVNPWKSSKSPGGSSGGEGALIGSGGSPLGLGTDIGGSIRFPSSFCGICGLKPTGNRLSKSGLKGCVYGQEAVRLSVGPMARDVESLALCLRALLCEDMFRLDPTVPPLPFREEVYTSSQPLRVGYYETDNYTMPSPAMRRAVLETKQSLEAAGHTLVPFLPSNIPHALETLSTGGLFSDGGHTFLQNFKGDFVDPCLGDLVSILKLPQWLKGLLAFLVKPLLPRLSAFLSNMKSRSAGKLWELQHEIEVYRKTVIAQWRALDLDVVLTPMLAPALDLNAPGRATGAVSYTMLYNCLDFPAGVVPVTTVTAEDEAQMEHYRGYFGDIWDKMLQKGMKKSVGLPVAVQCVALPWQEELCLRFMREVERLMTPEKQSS
# Assay: Human FAAH lysate assay (CHO cell lysate, AAMCA fluorescent substrate)
# Assay type: biochemical
# Settings: human FAAH lysate; read-out: Human FAAH lysate assay: IC50
# Excerpt: To assist in assay development stable cell lines for human, murine and rat full length FAAH were developed. Human FAAH cDNA (Accession No: NM-001441.1) was purchased from Origene (Rockville, Md.). The full length FAAH was subcloned into the mammalian expression vector, pcDEF.neo, using XbaI and EcoRI restriction sites and used for stable cell line generation. CHO cells expressing FAAH were used to prepare either crude cell lysate or microsome fractions. To harvest cells, tissue culture media was decanted, the monolayer washed three times with Ca^++Mg^++ free PBS and cells recovered after 15 min in enzyme free dissociation media (Millipore Corp, Billerica, Mass.). Cells were collected by centrifuging at 2000 rpm for 15 min. and the cell pellet re-suspended with 50 mM HEPES (pH 7.4) containing 1 mM EDTA and the protease inhibitors aprotinin (1 mg/ml) and leupeptin (100 μM). […] The pellet containing FAAH-enriched microsomes was re-suspend in 50 mM HEPES, (pH 7,4) 1 mM EDTA, and any remaining DNA sheared by passage of material through a 23 gauge needle and aliquots of enzyme were store at -80° C. prior to use. […] (American Radiolabeled Chemicals; 1 mCi/ml) with FAAH (Life Sciences (1995), 56, 1999-2005 and Journal of Pharmacology and Experimented Therapeutics (1997), 283, 729-734), Analytical. Biochemistry (2003), 318, 270-5. […] Analytical. Biochemistry (2005). 343, 143-51 […] Fluorescent release as a measure of FAAH activity was monitored by reading the plate in a CytoFluor Multiplate Reader ([…]). Whole cell assay is conducted with cells harvested after rinsing tissue culture flasks three times with Ca^++Mg^++ free PBS, incubating for 10 min in Enzyme free dissociation media and centrifuging for 5 minutes at 1,000 rpm in table top centrifuge. Cells are resuspended in assay buffer at desired cell number in (4×10^4 cells/assay in 96-well format; 1×10^4 cells/assay in 384-well format) and assayed as described. […] The reaction was terminated by addition of 2 volumes of chloroform:methanol (1:1) and mixed by vortexing. […] K., et al. A fluorescence-based assay for fatty acid amide hydrolase compatible with high-throughput screening. Anal. Biochem. 343:143-51 (2005) • Wilson S. J., et l. A high-throughput-compatible assay for determining the activity of fatty acid amide hydrolase. Anal Biochem. 318:270-5 (2003).
row,IC50 [nM],Structure (SMILES)
1,28.7,"CCn1ccc(-c2nc(-c3ccc(-c4ncon4)cc3)c(Sc3ccc(Cl)cc3)n2C)n1 [Example 140, 3-4-({5-[(4-chlorophenyl)sulfanyl]-2-(1-ethyl-1H-pyrazol-3-yl)-1-methyl-1H-imidazol-4-yl)phenyl)-1,2,4-oxadiazole]"
2,15.6,"CC(C)n1ccc(-c2nc(-c3ccc(-c4ncon4)cc3)c(Sc3ccc(Cl)cc3)n2C)n1 [Example 142, 3-(4-{5-[(4-chlorophenyl)sulfanyl]-1-methyl-2-[1-(propan-2-yl)-1H-pyrazol-3-yl]-1H-imidazol-4-yl}phenyl)-1,2,4-oxadiazole]"
3,11.7,"Cn1ccc(-c2nc(-c3ccc(-c4ncon4)cc3)c(Sc3ccc(Cl)cc3)n2C)n1 [Example 143, 3-(4-{5-[(4-chlorophenyl)sulfanyl]-1-methyl-2-(1-methyl-1H-pyrazol-3-yl)-1H-imidazol-4-yl}phenyl)-1,2,4-oxadiazole]"
4,7.4,"Cn1c(-c2ccn(C3CC3)n2)nc(-c2ccc(-c3ncon3)cc2)c1Sc1ccc(Cl)cc1 [Example 144, 3-(4-{5-[(4-chlorophenyl)sulfanyl]-2-(1-cyclopropyl-1H-pyrazol-3-yl)-1-methyl-1H-imidazol-4-yl}phenyl)-1,2,4-oxadiazole]"

# Second part, the compound before the results:
row,Structure (SMILES),IC50 [nM]
1,"CCn1nccc1-c1nc(-c2ccc(-c3ncon3)cc2)c(Sc2ccc(Cl)cc2)n1C [Example 141, 3-(4-{5-[(4-chlorophenyl)sulfanyl]-2-(1-ethyl-1H-pyrazol-5-yl)-1-methyl-1H-imidazol-4-yl}phenyl)-1,2,4-oxadiazole]",67.9
2,"Cn1c(-c2ccn(CC(C)(C)O)n2)nc(-c2ccc(C#N)cc2)c1Sc1ccc(Cl)cc1 [Example 145, 4-{5-[(4-chlorophenyl)sulfanyl]-2-[1-(2-hydroxy-2-methylpropyl)-1H-pyrazol-3-yl]-1-methyl-1H-imidazol-4-yl}benzonitrile]",23.1
3,"Cn1c(C(C)(C)O)nc(-c2ccc(-c3ncon3)cc2)c1Sc1ccc(Cl)cc1 [Example 146, 2-{5-[(4-chlorophenyl)sulfanyl]-1-methyl-4-[4-(1,2,4-oxadiazol-3-yl)phenyl]-1H-imidazol-2-yl}propan-2-ol]",208
4,"CCOC(C)(C)c1nc(-c2ccc(-c3ncon3)cc2)c(Sc2ccc(Cl)cc2)n1C [Example 147, 3-(4-{5-[(4-chlorophenyl)sulfanyl]-2-(2-ethoxypropan-2-yl)-1-methyl-1H-imidazol-4-yl}phenyl)-1,2,4-oxadiazole]",24.4
5,"Cn1c(-c2cc(C3CC3)on2)nc(-c2ccc(C(C)(C)O)nc2)c1Sc1ccc(Cl)cn1 [Example 148, 2-(5-{5-[(5-chloropyridin-2-yl)sulfanyl]-2-(5-cyclopropylisoxazol-3-yl)-1-methyl-1H-imidazol-4-yl}pyridin-2-yl)propan-2-ol]",91
